Test results reported in patent US20260068888A1, “ALGICIDAL FOAM COMPOSITIONS AND METHODS OF MAKING AND USING THEREOF” (THE ADMINISTRATORS OF THE TULANE EDUCATIONAL FUND, priority 2024, published 2026).

Tested on: Karenia brevis (KB) cells
Test: SYTOX-Green assay of cell-membrane integrity
Assay type: cell-based
Experimental: SYTOX-Green Assay. The effects of treatments on the cells were also investigated utilizing the SYTOX-green assay, a technique designed to evaluate cell-membrane integrity. The SYTOX-green dye selectively permeates through compromised cell membranes and produces green-fluorescent color upon interaction with nucleic acid. […] For the assay protocol, a 1.0 ml aliquot of the cell suspension was incubated with 10 μl of the dye solution ([…]) for 15 minutes in the dark, resulting in a final dye concentration of […]. The dye concentration and the incubation time were validated by the heat-treated K. brevis cells for 1 h at 60° C. The cell suspension was then transferred in an optically clear well plate for visualization under an inverted fluorescence microscope (Ex: 465-495 nm; Em: 515 nm, long pass).

[1] = gallic acid 5 mg/mL in the foam stock solution, Tween 80 1.25 mg/mL

O.O=C(O)c1cc(O)c(O)c(O)c1 [gallic acid, Gallic acid monohydrate]
time by which non-viable cells become lysed (loss of green fluorescence) [1]: ≤ 6 h | time to membrane compromised cells (SYTOX-green) [1]: ≤ 3 h | cell green fluorescence (lysis), SYTOX-green (gallic acid in foam, 24 hours): almost total loss of cell green fluorescence
